SMILES strings stand for the structures.

A short description of data set [1]: ^18F-CML in vivo stability in mice (radio-HPLC of plasma and urine). Set-up: species or system ICR mice. On the procedure: The in vivo stability of the ^18F-CML in mice was determined using arterial blood and urine samples. Male ICR mice (n = 3) were anaesthetised with 2% vaporized isoflurane and injected with a dose of approximately 3.7 MBq of ^18F-CML in 250 µL of normal saline via the tail vein. […] Blood samples were removed immediately and centrifuged at 12,000 rpm for 2 min at 4°C to separate the plasma. The urinary bladder was carefully excised, and the urine was collected from the bladder. The plasma (30 µL) and an aliquot of the urine sample (20 µL) was injected into an HPLC column to analyze the in vivo stability of ^18F-CML in the mice.
The HPLC analysis method was based on using trichloroacetic acid to precipitation plasma proteins, which were subsequently separated by reversed-phase column liquid chromatography using a 150 mm×4.6 mm C18 column with a mobile phase of […] acetonitrile and pure water (55%/45%) and detected based on UV absorbance at 254 nm. Radioactivity signal was detected by a radiochromatography detector (PTW, Freiburg, Germany). The ratio of unchanged ^18F-CML to total radioactivity on the HPLC chromatogram was calculated and expressed as a percentage.

The nature of data set [2]: microPET imaging after intravenous administration. To be noted: after intravenous injection. Type of data set: in vivo, ICR mice. On the procedure: After adjusting the animal board position, 0.15 mL of an ^18F-CML solution was administered intravenously via the tail vein. The solution of ^18F-CML was prepared just prior to the intravenous administration. The dose of ^18F-CML was adjusted to approximately 80 µCi per mouse (n = 4), and the pH of the solution was adjusted to 7.4. Here, the specific activity corresponded to 3 MBq/nmol. Dynamic PET images were acquired continuously for 2 hours.
Dynamic PET studies were performed using a dedicated microPET scanner for small animals. For imaging studies, the animals were under isoflurane anesthesia and then positioned and immobilized supine with their medial axis parallel to the axial axis of the scanner with the thorax and abdominal region (organs of interest: heart, liver, and kidneys) in the center of the field of view.
Approximately 5 min was needed to set the position of the animals after intragastric or intravenous administration of the drug solution containing ^18F-CML. Then, the emission data were acquired for 120 min. An attenuation map was created for each mouse by intravenously administering the residual ^18F-CML after acquisition of the emission data. The acquired data were sorted into dynamic sinograms. […] The quantitative analyses of the hepatic and renal distributions of ^18F-CML were performed using ASIPro installed in the PET system.

The next data set deals with HepG2 cells. Kind of data set: Cell uptake of ^18F-CML and native CML in HepG2 cells. Particulars: n=3, P<0.01, blocking with non-radioactive CML. Type of data set: cell-based. On the procedure:
To compare the different bioactivities of CML and ^18F-CML, two cell lines were evaluated for their capacity to take up native CML and the fluorobenzoylated derivative ^18F-CML. RAW264.7 macrophages and HepG2 liver cells were cultured in DMEM/LOWGLUCOSE, supplemented with 10% fetal bovine serum (FBS), 4.0 mmol/L L-glutamine, 110 mg/L sodium pyruvate, 100 U/mL penicillin, and 100 mg/L streptomycin at 37°C and 5% CO2.
For ^18F-CML cell uptake studies, RAW264.7 cells and HepG2 cells were seeded into 24-well plates at a density of 4×10^5 cells per well. Radio-tracer ^18F-CML (0.5 µCi/well, 3 µmol/mL) was incubated in a 37°C water bath for 15, 30, 60, and 120 min. At each time point the cells were washed 3 times with phosphate-buffered saline (PBS). The supernatant, washing-up liquid (unbound activity) and the pellet (cell-bound activity) were transferred to new tubes. Triplicates of the counting tubes containing supernatant and cell pellet were counted individually using a gamma counter for 1 min. For the blocking experiment, the uptake was carried out in the presence of the non-radioactive CML(10 µmol/mL) and processed similarly as described above. The uptake (%) of radio-tracer into the cell was determined using a gamma counter according to the following equation: [drawing 1]
For CML cell uptake ratio studies, unaltered CML (10 µmol/mL) was added to RAW264.7 and HepG2 cell pellets individually. The total proteins of each cell line were initially extracted from the lysates of 4×10^5 cells. […] The supernatants were purified and detected usingby the method described by Drusch et al., which uses an RP-HPLC method with an ortho-phthaldialdehyde (OPA)-derivatisation and fluorescence detection suited for automation. The HPLC analysis method used a 250 mm×4.6 mm C18 column (GROM-SIL 100 ODS-0 AB, Herrenberg, Germany) and detected the fluorescence excitation at 340 nm and emission at 455 nm. The peak identification of CML was confirmed by the retention time and standard addition and was quantified using an external standard. The amount of CML was calculated and expressed as a percentage.

With `O=C(O)CNCCCCC(NC(=O)c1ccc([18F])cc1)C(=O)O` (stereo not shown) [^18F-CML], in data set [1] (40 min after injection), the “Metabolic products in the urine (radio HPLC)” value was “No metabolic products were observed”. Besides, the “Radioactivity in an unchanged form in the plasma and urine (in vivo stability)” value in data set [1] (60 min after tail vein injection, RP-HPLC) is “more than 98%”. Moreover, the “Duration of continued accumulation of radioactivity in the kidneys (PET)” value in data set [2] is “approximately 60 min”. In addition, the “Uptake of radioactivity in untreated cells relative to unlabelled CML-treated (blocked) cells” value with HepG2 cells is listed as 1.6 fold.
